Results on four compounds are retold here after article PMC7029851, “Antibacterial activity of novel dual bacterial DNA type II topoisomerase inhibitors” (PLoS ONE, 2020).

One experiment relates to S. pyogenes APV00074. Nature of the experiment: MIC, broth microdilution. The experiment is classed as cell-based. As to conditions: Streptococcus pyogenes; S. pyogenes APV00074, ciprofloxacin-susceptible. The procedure:
(§1) MICs were determined by the broth microdilution method (the agar dilution method was used only for N. gonorrhoeae) according to CLSI guidelines.

The next experiment relates to S. pyogenes APV00083. Nature of the experiment: MIC, broth microdilution. Format: cell-based. As to conditions: Streptococcus pyogenes; S. pyogenes APV00083, ciprofloxacin-susceptible. How it is done: as §1
Background: Dilution methods test growth across graded concentrations, often in twofold steps.

The next experiment deals with E. coli 4SI. Nature of the experiment: MIC, broth microdilution. The experiment is classed as cell-based. Particulars: Escherichia coli, ciprofloxacin-resistant. How it is done:
as §1

A further experiment concerns A. baumannii APV00473. Nature of the experiment: MIC, broth microdilution. The experiment is classed as cell-based. Particulars: Acinetobacter baumannii; A. baumannii APV00473, ciprofloxacin-resistant. The procedure:
as §1

Another experiment has as its system A. baumannii ATCC 19606. Nature of the experiment: MIC, broth microdilution. Particulars: Acinetobacter baumannii, ATCC19606; A. baumannii ATCC 19606, ciprofloxacin-susceptible. The experiment is classed as cell-based. How it is done: as §1
In experiment [1] the test system is A. baumannii clinical isolates (n = 10). The experiment is described as follows: microbe, parasite or virus in culture. The experiment is classed as cell-based, Acinetobacter baumannii. Particulars: for MIC50 / MIC90: Acinetobacter baumannii. The procedure:
(§2) The bacterial reference strains used in this study were purchased from ATCC (American Type Culture Collection) via LGC Standards (Middlesex, UK). […] Clinical MDR isolates were provided by Aptuit, the IHMA Europa Sàrl repository (Epalinges, Switzerland) and the Statens Serum Institute (Copenhagen, Denmark).
as §1
(§3) The results obtained using clinical isolates are reported as MIC50 and MIC90 values.

The test system of experiment [2] is H. influenzae AcrA- mutant. The experiment is described as follows: microbe, parasite or virus in culture. Format: cell-based. As to conditions: Haemophilus influenzae. In short, it runs like this: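 MICs against efflux-deficient mutant strains were determined by broth microdilution following CLSI guidelines.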
The test system of experiment [3] is S. aureus clinical isolates (n = 10). Nature of the experiment: microbe, parasite or virus in culture. The experiment is classed as cell-based, Staphylococcus aureus. Particulars: S. aureus MDR clinical isolates (n = 10); for MIC50 / MIC90: Staphylococcus aureus; for MIC50: read-out: MIC50; for MIC90: read-out: MIC90. How it is done:
as §2, §1, §3

The test system of experiment [4] is E. coli clinical isolates (n = 36). Nature of the experiment: MIC, multidrug-resistant clinical isolates. Format: cell-based, Escherichia coli. As to conditions: Escherichia coli, E. coli MDR clinical isolates (n = 36); for MIC50: read-out: MIC50; for MIC90: read-out: MIC90. The procedure:
as §2, §1, §3

In the next experiment the test system is C. difficile ATCC 700057. Nature of the experiment: MIC, broth microdilution. Format: cell-based, Clostridium difficile. As to conditions: Clostridioides difficile, ATCC700057. The procedure: MICs were determined by the broth microdilution method (the agar dilution method was used only for N. gonorrhoeae) according to CLSI guidelines. […] The MIC values of antibiotics used in clinical practice were interpreted according to the susceptibility interpretive criteria reported in the appropriate CLSI Tables (M100-S25, CLSI, 2015).

Experiment [5] relates to C. difficile clinical isolates (n = 21). The experiment is described as follows: MIC, multidrug-resistant clinical isolates. Particulars: Clostridioides difficile, C. difficile clinical isolates (n = 21); for MIC50: read-out: MIC50; for MIC90: read-out: MIC90; for MIC: read-out: MIC range. Format: cell-based, Clostridium difficile. The procedure:
as §2, §1, §3

Where a name gives a salt, the structure may show the parent alone.

On to `O=c1oc2ccc(F)cc2c2[nH]c(CN[C@H]3CC[C@H](n4c(=O)cnc5ncc(F)cc54)CC3)cc12` [Compound 4, 8-fluoro-2-({[trans-4-(7-fluoro-2-oxopyrido[2,3-b]pyrazin-1(2H)-yl)cyclohexyl]amino}methyl)[1]benzopyrano[4,3-b]pyrrol-4(1H)-one (formate salt)], for which the MIC with S. pyogenes APV00074 was 0.12 µg/mL; against S. pyogenes APV00083, 0.12 µg/mL; with E. coli 4SI it was 0.25 µg/mL; against A. baumannii APV00473, 0.12 µg/mL; in the experiment on A. baumannii ATCC 19606, 0.5 µg/mL; in experiment [2], not above 0.016 µg/mL. The MIC range in experiment [1] and in experiment [3] was not above 0.06 to 0.5 µg/mL in each case. The MIC50 was found to be 0.25 µg/mL in [1] and 0.12 µg/mL in experiment [3]. Also, the MIC90 in [1] and in [3] was 0.5 µg/mL in each case.

On to `Cl.O=c1oc2ccc(F)cc2c2[nH]c(CN[C@H]3CC[C@H](n4c(=O)ccc5ccc(F)cc54)CC3)cc12` [Compound 6, 8-fluoro-2-({[trans-4-(7-fluoro-2-oxoquinolin-1(2H)-yl)cyclohexyl]amino}methyl)[1]benzopyrano[4,3-b]pyrrol-4(1H)-one hydrochloride], for which, in [4], the MIC was in the range of 0.25 to 4 µg/mL, the MIC50 was 2 µg/mL and the MIC90 was 4 µg/mL. In the experiment with C. difficile ATCC 700057, this compound showed an MIC of 0.5 µg/mL. For the same compound, in experiment [5], the MIC50 was 0.25 µg/mL, the MIC90 came to 0.25 µg/mL and the MIC is 0.06 to 0.25 µg/mL.

On to `COc1cnc2ncc(=O)n([C@H]3CC[C@H](NCc4cc5c(=O)oc6ccc(F)cc6c5[nH]4)CC3)c2c1` [Compound 5, 8-Fluoro-2-({[trans-4-(7-methoxy-2-oxopyrido[2,3-b]pyrazin-1(2H)-yl)cyclohexyl]amino}methyl)[1]benzopyrano[4,3-b]pyrrol-4(1H)-one hydrochloride], for which the MIC is 0.12 µg/mL against S. pyogenes APV00074; not above 0.06 µg/mL against S. pyogenes APV00083; 0.5 µg/mL in the experiment with E. coli 4SI; 0.5 µg/mL against A. baumannii APV00473; 1 µg/mL against A. baumannii ATCC 19606; 0.5 to 16 µg/mL in [4]. Besides, the MIC against C. difficile ATCC 700057 was 0.25 µg/mL; in experiment [5] it was 0.06 to 1 µg/mL; in experiment [2], not above 0.016 µg/mL. Moreover, the MIC range was 0.25 to 1 µg/mL in experiment [1] and not above 0.06 to 0.5 µg/mL in [3]. Moreover, the MIC50 stood at 0.5 µg/mL in [1], 2 µg/mL in [4], 0.5 µg/mL in experiment [5] and 0.12 µg/mL in experiment [3]. The MIC90 in experiment [1] was found to be 1 µg/mL; in experiment [4] it was 4 µg/mL; in experiment [5], 1 µg/mL; in [3] it was 0.5 µg/mL.

Regarding `Cl.O=c1oc2ccc(F)cc2c2[nH]c(CN[C@H]3CC[C@H](n4c(=O)ccc5ncc(F)cc54)CC3)cc12` [Compound 3, 8-fluoro-2-({[trans-4-(7-fluoro-2-oxo-1,5-naphthyridin-1(2H)-yl)cyclohexyl]amino}methyl)[1]benzopyrano[4,3-b]pyrrol-4(1H)-one hydrochloride], the MIC is not above 0.06 µg/mL with S. pyogenes APV00074; 0.12 µg/mL with S. pyogenes APV00083; 0.12 µg/mL with E. coli 4SI; not above 0.06 µg/mL against A. baumannii APV00473; not above 0.06 µg/mL against A. baumannii ATCC 19606; 0.25 to 4 µg/mL in [4]. Besides, the values for the MIC (in the experiment on C. difficile ATCC 700057; in experiment [5]; in experiment [2]) were 0.25 µg/mL, 0.06 to 0.25 µg/mL and 0.06 µg/mL, respectively. Moreover, the results for the MIC range in experiment [1] and in experiment [3] were not above 0.06 to 0.12 µg/mL and not above 0.06 µg/mL, respectively. Moreover, the MIC50 was not above 0.06 µg/mL in experiment [1], 1 µg/mL in experiment [4], 0.12 µg/mL in experiment [5] and not above 0.06 µg/mL in [3]. Moreover, the MIC90 in experiment [1] was 0.12 µg/mL; in [4], 2 µg/mL; in [5] it was 0.25 µg/mL; in [3] it was not above 0.06 µg/mL.
